The target of assay [1] is T1, ΔF508-CFTR (Homo sapiens, UniProt P13569, DEL508-508).
T1 construct: host or cells: CFBE41o-, doxycycline-inducible
Briefly: CFTR cell surface levels using HRP-tagged ΔF508-CFTR expressing CFBE cells, intrinsic corrector capacity. The class given is cell-based. On the set-up: % Activation: concentration or dose not given beside the values. To be noted: HRP-tagged ΔF508-CFTR expressing CFBE41o- cells, compound alone (intrinsic corrector capacity), 20 hours at 33° C.; for pEC50: read-out: EC50. The text has this:
(§1) Measuring CFTR Cell Surface Levels Using HRP-Tagged ΔF508-CFTR Expressing CFBE Cells
(§2) The HRP-tagged ΔF508-CFTR cell assay measures the expression of CFTR-ΔF508 at the plasma membrane. CFTR-ΔF508 has a folding defect leading to absence of protein at the plasma membrane. This assay is used to evaluate the capacity of compounds to increase the expression of CFTR-ΔF508 at the plasma membrane. The CFTR-ΔF508 is tagged with HRP (horse radish peroxidase enzyme) within the ECL4 (Extracellular loop 4) of CFTR (Phuan, P.-W. et al. Synergy-based small-molecule screen using a human lung epithelial cell line yields ΔF508-CFTR correctors that augment VX-809 maximal efficacy. Mol. Pharmacol. 86, 42-51 (2014)). When HRP-tagged ΔF508-CFTR is present at the plasma membrane, the HRP enzyme activity can be measured. The amount of CFTR-ΔF508 that can be rescued to the plasma membrane is correlated with the amount of functional enzyme that can be measured.
(§3) There are several ways to measure the capacity of compounds to rescue CFTR-ΔF508 to the plasma membrane; either compounds are evaluated on their own and the impact on plasma membrane levels is measured or compounds are evaluated in combination with a co-corrector, i.e. a compound that rescues CFTR-ΔF508 to the plasma membrane but rescue can be enhanced by addition of compounds due to a complementary mode of action.
Activity of Compounds for their Intrinsic Corrector Capacity:
For this purpose doxycycline-inducible ΔF508-CFTR-HRP expressing CFBE4lo− cells (obtained from Gergely Lukacs, McGill University) were maintained in MEM (Gibco; 31095) supplemented with 10% fetal bovine serum (Hyclone; SV30160.03) under puromycin (3 μg/mL) and G418 selection (0.2 mg/mL). For compound testing, cells were seeded at 4000 cells/well in white 384-well plates (Greiner; 781080) in 50 μL medium containing 0.5 μg/mL doxycycline and incubated for 68 hours at 37° C., 5% CO2. On day four, […] compounds diluted in PBS were added to the plates at a final DMSO concentration of 0.1%. All compound plates contained negative controls (DMSO) and positive controls ([…] corrector, 3-[(2R,4R)-4-({[1-(2,2-difluoro-1,3-benzodioxol-5-yl)cyclopropyl]carbonyl}amino)-7-methoxy-3,4-dihydro-2H-chromen-2-yl]benzoic acid). Cell plates were incubated at 33° C., 5% CO2 for 20 hours. On day five, the cells were washed five times with phosphate-buffered saline, and HRP activity was assayed by the addition of 50 μL/well of HRP substrate (SuperSignal™ West Pico Chemiluminescent Substrate, Thermo Scientific; 34080). After incubation for 15 minutes in the dark, chemiluminescence was measured using a plate reader (EnVision®, Perkin Elmer). Raw data were normalized to percentage activity values using the equation: 100×(Sample−Negative control)/(Positive control−Negative Control).

Assay [2] concerns the target T1, ΔF508-CFTR. Description: CFTR cell surface levels using HRP-tagged ΔF508-CFTR expressing CFBE cells, in the presence of a co-corrector. The settings on record: HRP-tagged ΔF508-CFTR CFBE cells, in the presence of 3 μM co-corrector; for pEC50: read-out: EC50. The class given is cell-based.
From the text: as §1, §2, §3
Activity of Compounds in Combination with Co-Corrector:
For this purpose doxycycline-inducible ΔF508-CFTR-HRP expressing CFBE4lo− cells (obtained from Gergely Lukacs, McGill University) were maintained in MEM (Minimum Essential Medium, Gibco; 31095) supplemented with 10% fetal bovine serum (Hyclone; SV30160.03) under puromycin (3 μg/mL) and G418 selection (0.2 mg/mL). For compound testing, cells were seeded at 4000 cells/well in white 384-well plates (Greiner; 781080) in 50 μL of medium containing 0.5 μg/mL doxycycline and incubated for 68 hours at 37° C., 5% CO2. On day four, 10 μL of test compounds diluted in PBS (phosphate buffered saline) were added to the plates at a final DMSO concentration of 0.1%. In order to measure compound synergy with a co-corrector, 3 μM co-corrector (3-[(2R,4R)-4-({[1-(2,2-difluoro-1,3-benzodioxol-5-yl)cyclopropyl]carbonyl}amino)-7-methoxy-3,4-dihydro-2H-chromen-2-yl]benzoic acid) was added along with test compounds. All compound plates contained negative controls (DMSO) and positive controls (3 μM co-corrector). Cell plates were incubated at 33° C., 5% CO2 for 20 hours. On day five, the cells were washed five times with phosphate-buffered saline, and HRP activity was assayed by the addition of 50 μL/well of HRP substrate (SuperSignal™ West Pico Chemiluminescent Substrate, Thermo Scientific; 34080). After incubation for 15 minutes in the dark, the chemiluminescence was measured using a plate reader (EnVision®, Perkin Elmer). Raw data were normalized to percentage activity values using the equation: 100×(Sample−Negative control)/(Positive control−Negative Control).

The values that follow come from patent US10259810B2, “N-sulfonylated pyrazolo[3,4-b]pyridin-6-carboxamides and method of use” (AbbVie S.à.r.l., priority 2015, dated 2019).

pEC50: −log10 of the molar value.

T1 sequence (P13569 with tags, fused parts or gaps DEL508-508): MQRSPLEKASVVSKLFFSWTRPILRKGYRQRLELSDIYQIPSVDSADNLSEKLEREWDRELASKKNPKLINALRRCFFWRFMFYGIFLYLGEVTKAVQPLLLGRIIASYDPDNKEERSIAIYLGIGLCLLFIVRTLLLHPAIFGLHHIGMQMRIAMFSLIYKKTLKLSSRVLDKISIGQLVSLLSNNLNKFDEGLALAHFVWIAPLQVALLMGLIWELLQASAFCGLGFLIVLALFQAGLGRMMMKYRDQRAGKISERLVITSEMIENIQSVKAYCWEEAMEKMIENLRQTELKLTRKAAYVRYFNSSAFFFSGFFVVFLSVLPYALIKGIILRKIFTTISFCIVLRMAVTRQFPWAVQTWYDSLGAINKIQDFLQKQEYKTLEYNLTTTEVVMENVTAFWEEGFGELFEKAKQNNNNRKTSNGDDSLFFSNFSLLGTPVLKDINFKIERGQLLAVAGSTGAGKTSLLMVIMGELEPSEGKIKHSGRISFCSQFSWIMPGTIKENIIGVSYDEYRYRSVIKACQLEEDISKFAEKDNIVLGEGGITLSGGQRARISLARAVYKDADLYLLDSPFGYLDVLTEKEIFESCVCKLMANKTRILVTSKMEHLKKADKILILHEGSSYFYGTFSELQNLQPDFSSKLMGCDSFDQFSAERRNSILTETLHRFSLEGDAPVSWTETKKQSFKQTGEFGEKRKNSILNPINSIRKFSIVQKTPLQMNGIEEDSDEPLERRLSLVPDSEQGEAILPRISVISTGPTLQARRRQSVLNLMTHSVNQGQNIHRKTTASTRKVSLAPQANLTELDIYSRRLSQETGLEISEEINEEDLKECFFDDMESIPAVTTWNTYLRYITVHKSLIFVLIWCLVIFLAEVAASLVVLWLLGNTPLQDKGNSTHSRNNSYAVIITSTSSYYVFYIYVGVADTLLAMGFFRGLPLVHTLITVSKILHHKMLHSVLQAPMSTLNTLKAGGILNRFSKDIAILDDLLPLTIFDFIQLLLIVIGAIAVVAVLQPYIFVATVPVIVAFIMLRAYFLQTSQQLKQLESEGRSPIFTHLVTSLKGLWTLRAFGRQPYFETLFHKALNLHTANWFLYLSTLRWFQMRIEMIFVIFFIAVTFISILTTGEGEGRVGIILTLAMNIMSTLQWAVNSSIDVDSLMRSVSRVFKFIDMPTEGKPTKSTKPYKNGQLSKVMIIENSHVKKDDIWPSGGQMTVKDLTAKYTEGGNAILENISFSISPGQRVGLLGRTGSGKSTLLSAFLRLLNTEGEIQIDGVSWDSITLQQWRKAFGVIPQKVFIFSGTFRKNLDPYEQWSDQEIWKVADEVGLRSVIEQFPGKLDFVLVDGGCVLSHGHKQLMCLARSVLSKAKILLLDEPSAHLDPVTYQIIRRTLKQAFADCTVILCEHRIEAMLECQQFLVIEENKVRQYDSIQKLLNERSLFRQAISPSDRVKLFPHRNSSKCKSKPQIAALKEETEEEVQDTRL

`Cc1nn(-c2ccccc2)c2nc(C(=O)NS(=O)(=O)C(F)(F)F)cc(-c3ccc(N4CCOCC4)cc3)c12` [Compound 3, 3-methyl-4-[4-(morpholin-4-yl)phenyl]-1-phenyl-N-(trifluoromethanesulfonyl)-1H-pyrazolo[3,4-b]pyridine-6-carboxamide]: at ΔF508-CFTR [1], the “% Activation” value worked out at 53.08% and the negative logarithm of the EC50 (pEC50) is 5.48.

On to `O=C(NS(=O)(=O)C1CC1)c1cc(OCC2CCOCC2)c2c(C3CCC3)nn(-c3ccccc3)c2n1` [Compound 333, 3-cyclobutyl-N-(cyclopropanesulfonyl)-4-[(oxan-4-yl)methoxy]-1-phenyl-1H-pyrazolo[3,4-b]pyridine-6-carboxamide], for which, on ΔF508-CFTR [1], the “% Activation” value worked out at 180% and the pEC50 was 7.08.

In the case of `CCS(=O)(=O)NC(=O)c1cc(OCC2CCOCC2)c2c(C3CCC3)nn(-c3ccccc3)c2n1` [Compound 335, 3-cyclobutyl-N-(ethanesulfonyl)-4-[(oxan-4-yl)methoxy]-1-phenyl-1H-pyrazolo[3,4-b]pyridine-6-carboxamide], at ΔF508-CFTR [1], the “% Activation” value turned out to be 171.65% and the pEC50 was 6.82.

Regarding `O=C(NS(=O)(=O)C1CCOC1)c1cc(N2CCN(c3ccncc3)CC2)c2c(C3CCC3)nn(C3CCCCC3)c2n1` (centres unmarked) [Compound 468, 3-cyclobutyl-1-cyclohexyl-N-(oxolane-3-sulfonyl)-4-[4-(pyridin-4-yl)piperazin-1-yl]-1H-pyrazolo[3,4-b]pyridine-6-carboxamide], on ΔF508-CFTR [2], the “% Activation” value is recorded as 443.05% and the pEC50 is 6.28.

With `CC(C)N1CCN(c2ccc(-c3cc(C(=O)NS(=O)(=O)N(C)C)nc4c3c(C3CCC3)nn4C3CCCCC3)cc2)CC1` [Compound 547, 3-cyclobutyl-1-cyclohexyl-N-(dimethylsulfamoyl)-4-{4-[4-(propan-2-yl)piperazin-1-yl]phenyl}-1H-pyrazolo[3,4-b]pyridine-6-carboxamide], at ΔF508-CFTR [2], the “% Activation” value is recorded as 372.95% and the negative-log EC50 (pEC50) is 6.46.

Take `CCOC(=O)N1CCC(NS(=O)(=O)NC(=O)c2cc(N3CCC(COC)CC3)c3c(C4CCC4)nn(-c4ccc(F)cc4)c3n2)CC1` [Compound 673, ethyl 4-[({3-cyclobutyl-1-(4-fluorophenyl)-4-[4-(methoxymethyl)piperidin-1-yl]-1H-pyrazolo[3,4-b]pyridine-6-carbonyl}sulfamoyl)amino]piperidine-1-carboxylate]: at ΔF508-CFTR [1], the “% Activation” value amounted to 423.5% and the negative logarithm of the EC50 (pEC50) was 6.54.

Take `COCC1CCN(c2cc(C(=O)NS(=O)(=O)NC3COC3)nc3c2c(C2CCC2)nn3-c2ccc(F)cc2)CC1` [Compound 674, 3-cyclobutyl-1-(4-fluorophenyl)-4-[4-(methoxymethyl)piperidin-1-yl]-N-[(oxetan-3-yl)sulfamoyl]-1H-pyrazolo[3,4-b]pyridine-6-carboxamide]: at ΔF508-CFTR [1], the “% Activation” value came out at 389.5% and the negative-log EC50 (pEC50) was 6.81.

With `COCC1CCN(c2cc(C(=O)NS(=O)(=O)NC3CCOCC3)nc3c2c(C2CCC2)nn3-c2ccc(F)cc2)CC1` [Compound 675, 3-cyclobutyl-1-(4-fluorophenyl)-4-[4-(methoxymethyl)piperidin-1-yl]-N-[(oxan-4-yl)sulfamoyl]-1H-pyrazolo[3,4-b]pyridine-6-carboxamide], on ΔF508-CFTR [1], the “% Activation” value is 398.1% and the pEC50 is 6.50.

With `COCC1CCN(c2cc(C(=O)NS(=O)(=O)N3CCC(N4CCOCC4)CC3)nc3c2c(C2CCC2)nn3-c2ccc(F)cc2)CC1` [Compound 676, 3-cyclobutyl-1-(4-fluorophenyl)-4-[4-(methoxymethyl)piperidin-1-yl]-N-[4-(morpholin-4-yl)piperidine-1-sulfonyl]-1H-pyrazolo[3,4-b]pyridine-6-carboxamide], at ΔF508-CFTR [1], the “% Activation” value is listed as 251.1% and the negative logarithm of the EC50 (pEC50) is 6.60.

Consider `CCOC(=O)N1CCN(c2cc(C(=O)NS(=O)(=O)CCOC)nc3c2c(C2CCC2)nn3-c2ccc(F)cc2)CC1` [Compound 677, ethyl 4-{3-cyclobutyl-1-(4-fluorophenyl)-6-[(2-methoxyethanesulfonyl)carbamoyl]-1H-pyrazolo[3,4-b]pyridin-4-yl}piperazine-1-carboxylate], for which, on ΔF508-CFTR [1], the “% Activation” value worked out at 458.5% and the pEC50 was 6.77.

As to `CCOC(=O)N1CCN(c2cc(C(=O)NS(=O)(=O)N3CCOCC3)nc3c2c(C2CCC2)nn3-c2ccc(F)cc2)CC1` [Compound 678, ethyl 4-{3-cyclobutyl-1-(4-fluorophenyl)-6-[(morpholine-4-sulfonyl)carbamoyl]-1H-pyrazolo[3,4-b]pyridin-4-yl}piperazine-1-carboxylate], on ΔF508-CFTR [1], the “% Activation” value amounted to 345.1% and the negative-log EC50 (pEC50) was 6.66.

As for `CCOC(=O)N1CCN(c2cc(C(=O)NS(C)(=O)=O)nc3c2c(C2CCC2)nn3-c2ccc(F)cc2)CC1` [Compound 679, ethyl 4-{3-cyclobutyl-1-(4-fluorophenyl)-6-[(methanesulfonyl)carbamoyl]-1H-pyrazolo[3,4-b]pyridin-4-yl}piperazine-1-carboxylate], on ΔF508-CFTR [1], the “% Activation” value worked out at 476.9% and the pEC50 is 6.88.

Regarding `CCOC(=O)N1CCN(c2cc(C(=O)NS(=O)(=O)NC)nc3c2c(C2CCC2)nn3-c2ccc(F)cc2)CC1` [Compound 680, ethyl 4-{3-cyclobutyl-1-(4-fluorophenyl)-6-[(methylsulfamoyl)carbamoyl]-1H-pyrazolo[3,4-b]pyridin-4-yl}piperazine-1-carboxylate], on ΔF508-CFTR [1], the “% Activation” value is 351.2% and the pEC50 was 6.47.

With `CC(C)COC(=O)N1CCN(c2cc(C(=O)NS(C)(=O)=O)nc3c2c(C2CCC2)nn3-c2ccc(F)cc2)CC1` [Compound 681, 2-methylpropyl 4-{3-cyclobutyl-1-(4-fluorophenyl)-6-[(methanesulfonyl)carbamoyl]-1H-pyrazolo[3,4-b]pyridin-4-yl}piperazine-1-carboxylate], on ΔF508-CFTR [1], the “% Activation” value was found to be 366.2% and the negative logarithm of the EC50 (pEC50) is 6.76.

With `CC(C)COC(=O)N1CCN(c2cc(C(=O)NS(=O)(=O)N3CCOCC3)nc3c2c(C2CCC2)nn3-c2ccc(F)cc2)CC1` [Compound 682, 2-methylpropyl 4-{3-cyclobutyl-1-(4-fluorophenyl)-6-[(morpholine-4-sulfonyl)carbamoyl]-1H-pyrazolo[3,4-b]pyridin-4-yl}piperazine-1-carboxylate], at ΔF508-CFTR [1], the “% Activation” value came out at 260.8% and the pEC50 is 6.53.

Consider `COCCS(=O)(=O)NC(=O)c1cc(N2CCN(C(=O)OCC(C)C)CC2)c2c(C3CCC3)nn(-c3ccc(F)cc3)c2n1` [Compound 683, 2-methylpropyl 4-{3-cyclobutyl-1-(4-fluorophenyl)-6-[(2-methoxyethanesulfonyl)carbamoyl]-1H-pyrazolo[3,4-b]pyridin-4-yl}piperazine-1-carboxylate], for which, on ΔF508-CFTR [1], the “% Activation” value is 354.9% and the negative-log EC50 (pEC50) is 6.60.
